Laboratory results reported in patent US10188107B2 (Heinrich Heine Universität Düsseldorf, priority 2013, dated 2019).

target: pyruvate phosphate dikinase (PPDK); test: not given; details: isolated enzyme; read-out: half maximal inhibitory concentration (IC50); cited from earlier work

Row | Compound | IC50
1 | C/C=C(\C)c1cc(O)c(C)c2c1Oc1cc(O)cc(C)c1C(=O)O2 [unguinol] | 40 µM

target: T1, PEP carboxylase from F. trinervia (C4 PEPC) (Flaveria trinervia, UniProt P30694); test: Spectrophotometric coupled assay with malate dehydrogenase, C4 PEP carboxylase; assay type: biochemical; details: range of concentrations, triplicate; C3 PEPC activity compared at the C4 IC50 concentration (figure legend)
T1 construct: histidine tag; made in house; host or cells: E. coli
T1 sequence (P30694 1-966): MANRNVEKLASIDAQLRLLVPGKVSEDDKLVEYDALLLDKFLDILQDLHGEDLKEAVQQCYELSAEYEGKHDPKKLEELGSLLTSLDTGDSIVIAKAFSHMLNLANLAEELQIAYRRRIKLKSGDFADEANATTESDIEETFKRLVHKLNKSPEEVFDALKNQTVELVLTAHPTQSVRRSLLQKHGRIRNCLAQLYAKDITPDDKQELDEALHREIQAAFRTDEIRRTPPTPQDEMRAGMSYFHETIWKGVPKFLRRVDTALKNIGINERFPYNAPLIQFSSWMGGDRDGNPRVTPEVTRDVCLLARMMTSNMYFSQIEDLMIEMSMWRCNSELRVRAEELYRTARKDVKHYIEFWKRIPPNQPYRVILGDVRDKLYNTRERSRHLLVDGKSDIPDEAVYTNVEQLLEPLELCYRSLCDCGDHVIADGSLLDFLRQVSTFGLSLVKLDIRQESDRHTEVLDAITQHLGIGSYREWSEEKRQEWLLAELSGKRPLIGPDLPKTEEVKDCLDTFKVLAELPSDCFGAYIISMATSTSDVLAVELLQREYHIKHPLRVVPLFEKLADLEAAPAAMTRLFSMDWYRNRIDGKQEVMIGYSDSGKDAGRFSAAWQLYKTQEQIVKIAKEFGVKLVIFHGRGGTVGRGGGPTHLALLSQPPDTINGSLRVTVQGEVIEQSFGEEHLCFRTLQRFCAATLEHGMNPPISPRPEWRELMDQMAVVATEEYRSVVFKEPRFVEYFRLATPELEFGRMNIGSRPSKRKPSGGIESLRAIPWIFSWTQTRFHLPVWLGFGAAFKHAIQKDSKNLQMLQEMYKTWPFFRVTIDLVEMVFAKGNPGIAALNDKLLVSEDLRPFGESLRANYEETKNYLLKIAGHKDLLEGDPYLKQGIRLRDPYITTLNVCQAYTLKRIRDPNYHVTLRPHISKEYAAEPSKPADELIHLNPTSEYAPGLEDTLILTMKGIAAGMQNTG
Text: How to determine the activity of a PEP carboxylase is well known in the art. E.g, the formation of oxaloacetate can be determined spectrophotometrically, e.g., in a malate dehydrogenase coupled system. The reaction velocity can be measured as a decrease in A340 resulting from the oxidation of NADH.
Inhibition of purified PEP carboxylases from F. pringlei and F. trinervia by compounds selected from the VDS was monitored by a spectrophotometric coupled assay with malate dehydrogenase which reduces the oxaloacetate formed by PEP carboxylase to malate. The simultaneous oxidation of NADH is followed at 340 nm with standard optical equipment. The concentration of the inhibitors selected from the VDS was varied in the coupled assay to determine the half maximal inhibitory concentration (IC50).

Row | Compound | Inhibition of a C4-PEPC
2 | O=C(O)c1cc(/C=C/c2cc(O)ccc2O)ccc1O [1-(3′-carboxy-4′-hydroxyphenyl)-2-(2,5-dihydroxyphenl(ethene)] | Selective inhibition
3 | COc1cc2ncc(-c3ccc(O)c(O)c3)nc2cc1OC [2-(3,4-Dihydroxyphenyl)-6,7-dimethoxyquinoxaline] | Inhibition
4 | O=C(/C=C/c1ccc(O)c(O)c1)c1ccc(O)cc1O [butein] | Selective inhibition
5 | catechin | Inhibition

test system: PEP carboxylase from C4 plant Amaranthus viridis; test: not given; details: cited from earlier work

Row | Compound | inhibition of PEP carboxylase from Amaranthus viridis
6 | O=c1c(O)c(-c2ccc(O)c(O)c2)oc2cc(O)ccc12 [fisetin] | inhibited
7 | O=c1c(O)c(-c2ccc(O)cc2)oc2cc(O)cc(O)c12 [kaempferol] | inhibited
8 | O=c1c(O)c(-c2ccc(O)cc2O)oc2cc(O)cc(O)c12 [morin] | inhibited
9 | O=c1c(O)c(-c2cc(O)c(O)c(O)c2)oc2cc(O)cc(O)c12 [myricetin] | inhibited
10 | O=c1c(O)c(-c2ccc(O)c(O)c2)oc2cc(O)cc(O)c12 [quercetin] | inhibited
11 | baicalein/baicalin | inhibited
